Source: patent publication US5043332A, “Novel 11β-substituted -19-nor-steriods” (priority 1981, dated 1991)

Assays:
[1] = molecular target: T1, Progestogen receptor of the uterus of rabbits (Oryctolagus cuniculus, UniProt P06186); assay: Progestogen receptor binding (displacement of tritiated product R); design: species or system rabbit; conditions: for affinity for progestogen receptors (in words): conclusion; for relative affinity of tieing (ARL), Progestogen: second table
T1 construct: The uterus was removed, weighed and homogenized at 0° C; from tissue; host or cells: rabbit uterus, 105,000 g supernatant (estradiol-primed immature rabbits)
T1 sequence (P06186 1-930): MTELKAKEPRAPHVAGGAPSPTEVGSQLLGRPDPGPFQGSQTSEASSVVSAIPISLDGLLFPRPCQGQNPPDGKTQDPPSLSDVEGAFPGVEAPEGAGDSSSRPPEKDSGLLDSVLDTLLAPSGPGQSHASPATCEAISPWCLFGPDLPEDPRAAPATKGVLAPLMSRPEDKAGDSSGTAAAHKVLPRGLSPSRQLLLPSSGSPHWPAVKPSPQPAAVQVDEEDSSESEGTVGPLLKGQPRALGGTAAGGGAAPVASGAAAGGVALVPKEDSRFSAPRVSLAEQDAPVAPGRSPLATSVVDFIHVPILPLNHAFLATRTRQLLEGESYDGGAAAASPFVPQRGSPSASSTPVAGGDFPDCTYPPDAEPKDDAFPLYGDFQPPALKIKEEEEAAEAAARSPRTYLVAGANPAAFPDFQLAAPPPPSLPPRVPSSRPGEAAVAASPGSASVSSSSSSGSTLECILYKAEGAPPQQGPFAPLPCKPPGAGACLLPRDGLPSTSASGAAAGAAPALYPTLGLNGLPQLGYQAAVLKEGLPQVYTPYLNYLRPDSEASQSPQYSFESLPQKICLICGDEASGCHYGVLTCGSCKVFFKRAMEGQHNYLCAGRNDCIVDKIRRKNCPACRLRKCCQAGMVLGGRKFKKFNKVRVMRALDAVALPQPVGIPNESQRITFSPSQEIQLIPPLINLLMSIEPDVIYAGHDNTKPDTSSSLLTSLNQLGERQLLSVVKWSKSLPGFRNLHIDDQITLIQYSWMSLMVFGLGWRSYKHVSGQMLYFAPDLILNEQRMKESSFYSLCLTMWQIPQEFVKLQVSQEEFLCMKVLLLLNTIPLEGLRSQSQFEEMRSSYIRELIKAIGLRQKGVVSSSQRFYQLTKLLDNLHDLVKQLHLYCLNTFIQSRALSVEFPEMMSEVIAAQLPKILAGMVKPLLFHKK
Description: C. Progestogen receptor of the uterus of rabbits
Immature rabbits weighing about 1 kg received a cutaneous application of 25 μg of estradiol and the animals were killed 5 days later. The uterus was removed, weighed and homogenized at 0° C. with a polytetrafluoroethylene-glass Potter, in a buffered TS solution [Tris 10. mM, 0.25M of saccharose, HCl-pH of 7.4] with 1 g of tissue per 50 ml of TS. […] The concentration of tied tritiated R (B) was then measured for each incubate by the technique of adsoprtion on carbon-dextran.
(§1) The calculation of the relative affinity of […] (ARL) was identical for all of the above receptor tests. One traced the following two curves: the percentage of tied tritiated hormone B/T as a function of the logarithm of the cold hormone concentration and B/T as a function of the logarithm of the concentration of the cold test product. One determined the line of the equation. [formula]
(§2) The intersection of the I50 line and the curves permits one to determine the concentrations of the cold hormone of the reference (CH) and the cold test compound (CX) which inhibit by 50% the tieing of tritiated hormone with the receptor. The relative affinity of tieing (ARL) of the test product was determined by the equation: [formula]

[2] = molecular target: T2, Mineralcorticoidal receptor of kidneys of the rat (Rattus norvegicus, UniProt P22199); assay: Mineralcorticoidal receptor binding (displacement of tritiated aldosterone); conditions: second table; incubation 24 H at 0° C.
T2 construct: from tissue; host or cells: rat kidney, 105,000 g supernatant (adrenalectomized male Sprague-Dawley rats)
T2 sequence (P22199 1-981): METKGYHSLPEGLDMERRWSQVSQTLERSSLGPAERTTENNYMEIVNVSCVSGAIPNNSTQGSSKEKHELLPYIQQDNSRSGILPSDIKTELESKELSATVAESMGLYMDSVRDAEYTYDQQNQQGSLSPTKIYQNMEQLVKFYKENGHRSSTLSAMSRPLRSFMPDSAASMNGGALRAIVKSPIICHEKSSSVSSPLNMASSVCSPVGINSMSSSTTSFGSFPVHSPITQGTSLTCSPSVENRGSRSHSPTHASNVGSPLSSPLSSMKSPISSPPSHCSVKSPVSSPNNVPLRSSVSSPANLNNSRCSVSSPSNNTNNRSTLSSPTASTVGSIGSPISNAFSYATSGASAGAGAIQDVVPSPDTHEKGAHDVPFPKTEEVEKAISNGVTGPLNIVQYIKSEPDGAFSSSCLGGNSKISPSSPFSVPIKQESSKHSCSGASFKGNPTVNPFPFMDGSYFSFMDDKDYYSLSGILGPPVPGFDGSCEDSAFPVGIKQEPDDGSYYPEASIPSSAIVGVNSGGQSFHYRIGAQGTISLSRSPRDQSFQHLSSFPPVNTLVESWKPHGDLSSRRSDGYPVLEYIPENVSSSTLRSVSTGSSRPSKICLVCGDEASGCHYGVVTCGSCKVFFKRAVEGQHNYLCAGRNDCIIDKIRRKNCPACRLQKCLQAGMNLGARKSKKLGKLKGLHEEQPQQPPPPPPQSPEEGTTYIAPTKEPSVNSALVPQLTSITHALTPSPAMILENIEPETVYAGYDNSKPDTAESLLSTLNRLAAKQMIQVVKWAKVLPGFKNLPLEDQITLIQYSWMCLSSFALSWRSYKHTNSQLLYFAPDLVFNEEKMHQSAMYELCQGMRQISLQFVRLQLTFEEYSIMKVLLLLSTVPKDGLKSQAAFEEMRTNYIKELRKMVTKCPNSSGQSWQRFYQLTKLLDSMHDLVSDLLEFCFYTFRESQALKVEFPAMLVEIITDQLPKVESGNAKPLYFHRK
Description: A. Mineralcorticoidal receptor of kidneys of the rat
Male Sprague-Dawley EOPS rats weighing 140 to 160 g surrenalectomized 4 to 8 days previously were killed and their kidneys were perfused in situ with 50 ml of a buffer (10 mM of Tris 0.25M of Saccharose and sufficient hydrochloric acid for a pH of 7.4). The kidneys were then removed, decapsulated and homogenized at 0° C. with a polytetrafluoroethylene-glass Potter (1 g of tissue per 3 ml of buffer). The homogenate was centrifuged for 10 minutes at 800 g at 9° C.
After elimination of the fixation of tritiated aldosterone with glucocorticoid receptor, 21-methyl-Δ^1,4,6 -pregnatriene-20-yne-11β,17β-diol-3-one fixed only with the glucocorticoid receptor was added to the supernatant at a final concentration of 10^-6 M. The suprenatant was ultracentrifuged at 105,000 g for 60 minutes and 0° C. and aliquoits of the resulting surnageant were incubated at 0° C. with a constant concentration (T) of tritiated aldosterone in the presence of increasing concentrations (0-2500×10^-9 M) of cold aldosterone or the cold test product. After a time (t) of incubation, the concentration of tied tritiated aldosterone (B) was measured by the technique of adsoprtion on carbon dextran.
as §1, §2

Row | SMILES | affinity for progestogen receptors (in words) [1] | relative affinity of tieing (ARL), Progestogen ([1]; incubation 2 H at 0° C.) | relative affinity of tieing (ARL), Progestogen ([1]; incubation 24 H at 0° C.) | relative affinity of tieing (ARL), Mineralocorticoid [2]
1 | C[C@]12C[C@H](c3ccc([N+](C)(C)[O-])cc3)C3=C4CCC(=O)C=C4CC[C@H]3[C@@H]1CC[C@@]2(O)C#CCl [Example 26, N-oxide of 11β-[4-(N,N-dimethylamino)-phenyl]-21-chloro-19-nor-17α-Δ^4,9-pregnadiene-20-yne-17β-ol-3-one] |  | 6,3 | 8,3 | 0
2 | C[C@]12C[C@H](c3ccc([N+](C)(C)[O-])cc3)[C@]34O[C@]35CCC(=O)C=C5CC[C@H]4[C@@H]1CC[C@@]2(O)C#CCl [Example 27, N-oxide of 11β-[4-(N,N-dimethylamino)-phenyl]-9α,10α-epoxy-21-chloro-19-nor-17α-Δ^4-pregnene-20-yne-17β-ol-3-one] |  | 0,6 | 0,4 | 0
3 | C=CC[C@]1(O)CC[C@H]2[C@@H]3CCC4=CC(=O)CCC4=C3[C@@H](c3ccc(N(C)C)cc3)C[C@@]21C [Example 37, 11β-[4-(N,N-dimethylamino)-phenyl]-17α-(prop-2-enyl)-Δ^4,9-estradien-17β-ol-3-one] | very remarkable affinity | 175 | 843 | 0,3
4 | CN(C)c1ccc([C@H]2C[C@@]3(C)[C@@H](CC[C@@]3(O)C#C[Si](C)(C)C)[C@@H]3CCC4=CC(=O)CCC4=C32)cc1 [Example 44, 11β-[4-(N,N-dimethylamino)-phenyl]-21-trimethylsilyl-19-nor-17α-Δ^4,9-pregnadiene-20-yne-17β-ol-3-one] |  | 15,2 | 38 | 0

More lines, main results first:

Row | affinity for progestogen receptors (in words) [1] | SMILES | relative affinity of tieing (ARL), Progestogen ([1]; incubation 2 H at 0° C.) | relative affinity of tieing (ARL), Progestogen ([1]; incubation 24 H at 0° C.) | relative affinity of tieing (ARL), Mineralocorticoid [2]
5 | very remarkable affinity | CN(C)c1ccc([C@H]2C[C@@]3(C)[C@@H](CC[C@@]3(O)C#CCl)[C@@H]3CCC4=CC(=O)CCC4=C32)cc1 [Example 25, 11β-[4-(N,N-dimethylamino)-phenyl]-21-chloro-19-nor-17α-Δ^4,9-pregnadiene-20-yne-17β-ol-3-one] | 78 | 467 | 0
6 | very remarkable affinity | C#C[C@]1(O)CC[C@H]2[C@@H]3CCC4=CC(=O)CCC4=C3[C@@H](c3ccc(N(C)C)cc3)C[C@@]21C [Example 32, 11β-[4-(N,N-dimethylamino)-phenyl]-17α-ethynyl-Δ^4,9-estradiene-17β-ol-3-one] | 81 | 351 | 0
